This is an account of results in patent US7795261B2, “Substituted 1-piperidin-4-yl-4-pyrrolidin-3-yl-piperazine derivatives and their use as neurokinin antagonists” (Janssen Pharmaceutica NV, priority 2002, dated 2010).

Format in all cases: cell-based
One experiment addresses NK1 (Homo sapiens, UniProt P25103). As to the kind of experiment: Signal transduction (ST), intracellular Ca++ (FLIPR), NK1 antagonistic activity. Particulars: read-out: pIC50 NK1 (converted). In short, it runs like this: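 Confluent cells loaded with 2 μM Fluo3 (1 h, 37 °C, probenecid), preincubated 20 min at RT with antagonist concentration range, then agonist added. Peak Ca++ transient read by FLIPR in Krebs buffer pH 7.4; IC50 by non-linear regression.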

Another experiment addresses T1, NK2 (Homo sapiens, UniProt P21452).
T1 sequence (P21452 1-398): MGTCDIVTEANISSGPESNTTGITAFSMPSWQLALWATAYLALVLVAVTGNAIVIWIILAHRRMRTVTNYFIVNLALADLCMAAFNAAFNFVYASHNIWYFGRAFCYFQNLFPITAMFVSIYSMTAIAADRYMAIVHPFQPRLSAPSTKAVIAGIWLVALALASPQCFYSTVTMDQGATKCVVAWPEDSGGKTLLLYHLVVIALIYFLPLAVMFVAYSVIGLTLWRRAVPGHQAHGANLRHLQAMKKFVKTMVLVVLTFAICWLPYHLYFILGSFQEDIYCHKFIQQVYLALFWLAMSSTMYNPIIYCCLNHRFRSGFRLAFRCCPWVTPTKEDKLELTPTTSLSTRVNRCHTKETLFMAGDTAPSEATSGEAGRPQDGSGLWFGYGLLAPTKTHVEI
Description: Signal transduction (ST), intracellular Ca++ (FLIPR), NK2. Particulars: read-out: pIC50 NK2 (converted). As for the experimental part:
[The procedure below names another target; the source lists this target under the same test.] This test evaluates in vitro functional NK1 antagonistic activity. For the measurements of intracellular Ca^++ concentrations the cells were grown on 96-well (black wall/transparent bottom) plates from Costar for 2 days until they reached confluence. The cells were loaded with 2 μM Fluo3 in DMEM containing 0.1% BSA and 2.5 mM probenecid for 1 h at 37° C. They were washed 3× with a Krebs buffer (140 mM NaCl, 1 mM MgCl2×6H2O, 5 mM KCl, 10 mM glucose, 5 mM HEPES; 1.25 mM CaCl2; pH 7.4) containing 2.5 mM probenecid and 0.1% BSA (Ca^++-buffer). The cells were preincubated with a concentration range of antagonists for 20 min at RT and Ca^++-signals after addition of the agonists were measured in a Fluorescence Image Plate Reader (FLIPR from Molecular Devices, Crawley, England). The peak of the Ca^++-transient was considered as the relevant signal and the mean values of corresponding wells were analysed as described below.
The sigmoidal dose response curves were analysed by computerised curve-fitting, using the GraphPad Program. […] For antagonist responses the IC50-value was calculated using non-linear regression.
The last columns indicates—without being limited therefore—for which the compounds might be most suitable. Of course, since for some neurokinin receptors no data was determined, it is obvious that these compounds might be attributed to another suitable use.

The next experiment deals with T2, NK3 (Homo sapiens, UniProt P29371).
T2 sequence (P29371 1-465): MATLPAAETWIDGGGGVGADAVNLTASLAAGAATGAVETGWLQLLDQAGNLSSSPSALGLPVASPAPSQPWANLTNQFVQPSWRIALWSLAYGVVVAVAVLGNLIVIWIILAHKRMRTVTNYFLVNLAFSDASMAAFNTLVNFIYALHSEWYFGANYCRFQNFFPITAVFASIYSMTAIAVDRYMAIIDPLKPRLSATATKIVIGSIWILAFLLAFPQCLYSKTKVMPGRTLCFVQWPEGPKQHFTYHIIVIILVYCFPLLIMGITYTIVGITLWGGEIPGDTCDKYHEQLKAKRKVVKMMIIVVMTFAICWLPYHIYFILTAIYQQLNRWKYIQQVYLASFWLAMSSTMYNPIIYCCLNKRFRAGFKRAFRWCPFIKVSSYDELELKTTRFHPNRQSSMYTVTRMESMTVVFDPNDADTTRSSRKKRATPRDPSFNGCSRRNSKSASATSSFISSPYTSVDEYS
Description: Signal transduction (ST), intracellular Ca++ (FLIPR), NK3. Particulars: read-out: pIC50 NK3 (converted).

Sequence of NK1 (P25103 whole entry): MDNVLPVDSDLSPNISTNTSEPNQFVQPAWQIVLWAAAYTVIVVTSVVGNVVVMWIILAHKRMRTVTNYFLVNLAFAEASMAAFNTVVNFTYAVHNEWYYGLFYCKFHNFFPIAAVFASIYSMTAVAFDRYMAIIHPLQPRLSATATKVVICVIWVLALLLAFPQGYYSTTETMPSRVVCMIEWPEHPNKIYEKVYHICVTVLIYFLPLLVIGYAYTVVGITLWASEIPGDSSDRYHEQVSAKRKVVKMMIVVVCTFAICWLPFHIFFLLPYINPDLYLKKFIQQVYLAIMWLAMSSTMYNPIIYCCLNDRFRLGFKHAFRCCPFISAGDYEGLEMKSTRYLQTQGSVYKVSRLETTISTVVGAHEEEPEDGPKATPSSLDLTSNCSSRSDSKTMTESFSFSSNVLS

As to `O=C(C1CC1)N1CCC(N2CCN([C@H]3CCN(C(=O)c4cc(C(F)(F)F)cc(C(F)(F)F)c4)[C@H](Cc4ccc(Cl)c(Cl)c4)C3)CC2)C1` (relative stereo) [Compound 162], the IC50 on NK1 was 10 nM; at NK2, 1000 nM; on NK3 it was 501 nM.
With `O=C(c1ccccc1Cl)N1CCC(N2CCN([C@H]3CCN(C(=O)c4cc(C(F)(F)F)cc(C(F)(F)F)c4)[C@H](Cc4ccc(Cl)c(Cl)c4)C3)CC2)C1` (relative stereo) [Compound 164], the IC50 was 15.8 nM on NK1, 79.4 nM at NK2 and 398 nM on NK3.
With `O=C(c1ccoc1)N1CCC(N2CCN(C3CCN(C(=O)c4cc(C(F)(F)F)cc(C(F)(F)F)c4)C(Cc4ccccc4)C3)CC2)C1` (single isomer, unassigned) [Compound 32], the IC50 at NK1 was 12.6 nM; on NK2, 5010 nM; at NK3, 200 nM.
As to `O=C(c1ccoc1)N1CCC(N2CCN(C3CCN(C(=O)c4cc(C(F)(F)F)cc(C(F)(F)F)c4)C(Cc4ccccc4)C3)CC2)C1` (single isomer, unassigned) [Compound 33], the IC50 at NK1 was 15.8 nM; at NK2 it was 3980 nM; at NK3, 501 nM.
As to `O=C(c1ccsc1)N1CCC(N2CCN(C3CCN(C(=O)c4cc(C(F)(F)F)cc(C(F)(F)F)c4)C(Cc4ccccc4)C3)CC2)C1` (single isomer, unassigned) [Compound 39], the values for the IC50 at NK1, at NK2 and on NK3 were 15.8 nM, 3160 nM and 398 nM, respectively.
As to `O=C(c1ccsc1)N1CCC(N2CCN(C3CCN(C(=O)c4cc(C(F)(F)F)cc(C(F)(F)F)c4)C(Cc4ccccc4)C3)CC2)C1` (single isomer, unassigned) [Compound 40], the IC50 on NK1 is 7.94 nM; at NK2 it was 2510 nM; on NK3, 126 nM.
Turning to `O=C(C1CC1)N1CCC(N2CCN(C3CCN(C(=O)c4cc(C(F)(F)F)cc(C(F)(F)F)c4)C(Cc4ccccc4)C3)CC2)C1` (single isomer, unassigned) [Compound 71], the IC50 was 20 nM on NK1, 5010 nM at NK2 and 794 nM on NK3.
The matching figures for `O=C(c1ccccc1Cl)N1CCC(N2CCN(C3CCN(C(=O)c4cc(C(F)(F)F)cc(C(F)(F)F)c4)C(Cc4ccccc4)C3)CC2)C1` (single isomer, unassigned) [Compound 159]: 20 nM, 6310 nM and 631 nM.
Consider `O=C(c1ccccc1Cl)N1CCC(N2CCN(C3CCN(C(=O)c4cc(C(F)(F)F)cc(C(F)(F)F)c4)C(Cc4ccc(F)c(F)c4)C3)CC2)C1` (single isomer, unassigned) [Compound 211], for which the IC50 on NK1 was 6.31 nM; at NK2, 1000 nM; at NK3, 200 nM.
`O=C(C1CCOC1)N1CCC(N2CCN(C3CCN(C(=O)c4cc(C(F)(F)F)cc(C(F)(F)F)c4)C(Cc4ccccc4)C3)CC2)C1` (single isomer, unassigned) [Compound 216]: the IC50 on NK1 is 10 nM; on NK2, 5010 nM; on NK3, 1580 nM.
The matching figures for `O=C(c1cccs1)N1CCC(N2CCN(C3CCN(C(=O)c4cc(C(F)(F)F)cc(C(F)(F)F)c4)C(Cc4ccc(F)c(F)c4)C3)CC2)C1` (single isomer, unassigned) [Compound 232]: 6.31 nM, 3160 nM and 126 nM.
Take `O=C(c1ccsc1)N1CCC(N2CCN(C3CCN(C(=O)c4cc(C(F)(F)F)cc(C(F)(F)F)c4)C(Cc4ccc(F)c(F)c4)C3)CC2)C1` (single isomer, unassigned) [Compound 238]: the values for the IC50 at NK1, on NK2 and on NK3 were 6.31 nM, 1260 nM and 158 nM, respectively.
As to `O=C(c1c(Cl)cccc1Cl)N1CCC(N2CCN(C3CCN(C(=O)c4cc(C(F)(F)F)cc(C(F)(F)F)c4)C(Cc4ccc(F)c(F)c4)C3)CC2)C1` (single isomer, unassigned) [Compound 239], the IC50 at NK1 was 10 nM; at NK2 it was 1000 nM; at NK3, 251 nM.
The like results for `O=C(C1CCOC1)N1CCC(N2CCN(C3CCN(C(=O)c4cc(C(F)(F)F)cc(C(F)(F)F)c4)C(Cc4ccc(Cl)c(Cl)c4)C3)CC2)C1` (single isomer, unassigned) [Compound 249] were, in that order, 50.1 nM, 5010 nM and 5010 nM.
The matching figures for `O=C(C1CC1)N1CCC(N2CCN(C3CCN(C(=O)c4cc(C(F)(F)F)cc(C(F)(F)F)c4)C(Cc4ccc(F)c(F)c4)C3)CC2)C1` (single isomer, unassigned) [Compound 252]: 10 nM, 1000 nM and 501 nM.
The matching figures for `Cc1nnsc1C(=O)N1CCC(N2CCN(C3CCN(C(=O)c4cc(C(F)(F)F)cc(C(F)(F)F)c4)C(Cc4ccc(F)c(F)c4)C3)CC2)C1` (single isomer, unassigned) [Compound 253]: 5.01 nM, 398 nM and 501 nM.
`O=C(c1cccnc1)N1CCC(N2CCN([C@H]3CCN(C(=O)c4cc(C(F)(F)F)cc(C(F)(F)F)c4)[C@H](Cc4ccccc4)C3)CC2)C1` (some centres unmarked) [Compound 28]: the figures for the IC50 on NK1 and on NK2 were 50.1 nM and 2510 nM, respectively.
The matching figures for `Cn1cc(C(=O)N2CCC(N3CCN([C@H]4CCN(C(=O)c5cc(C(F)(F)F)cc(C(F)(F)F)c5)[C@H](Cc5ccccc5)C4)CC3)C2)ccc1=O` (some centres unmarked) [Compound 29]: 79.4 nM and 2000 nM.
The like results for `O=C(c1cc(C(F)(F)F)cc(C(F)(F)F)c1)N1CC[C@H](N2CCN([C@@H]3CCNC3)CC2)C[C@H]1Cc1ccc(Cl)c(Cl)c1` [Compound 262] were, in that order, 6.31 nM and 501 nM.
On to `O=C(C1CCCCN1)N1CCC(N2CCN(C3CCN(C(=O)c4cc(C(F)(F)F)cc(C(F)(F)F)c4)C(Cc4ccccc4)C3)CC2)C1` (centres unmarked) [Compound 294], for which the results for the IC50 at NK1 and on NK2 were 20 nM and 7940 nM, respectively.
The like results for `COc1ccc(C(O)C(=O)N2CCC(N3CCN([C@H]4CCN(C(=O)c5cc(C(F)(F)F)cc(C(F)(F)F)c5)[C@H](Cc5ccccc5)C4)CC3)C2)cc1` (some centres unmarked) [Compound 333] were, in that order, 20 nM and 2510 nM.
The matching figures for `O=C(c1cc(C(F)(F)F)cc(C(F)(F)F)c1)N1CCC(N2CCN(C3CCN(S(=O)(=O)c4cc(CCOCc5ccccc5)cs4)C3)CC2)CC1Cc1ccccc1` (centres unmarked) [Compound 335]: 316 nM and 1000 nM.
`O=C(c1cc(C(F)(F)F)cc(C(F)(F)F)c1)N1CC[C@H](N2CCN(C3CCN(S(=O)(=O)c4ccc(CCOCc5ccccc5)s4)C3)CC2)C[C@H]1Cc1ccccc1` (some centres unmarked) [Compound 336]: the results for the IC50 on NK1 and at NK2 were 158 nM and 1000 nM, respectively.
Regarding `CC(C)N/C(=N\C#N)N1CCC(N2CCN(C3CCN(C(=O)c4cc(C(F)(F)F)cc(C(F)(F)F)c4)C(Cc4ccccc4)C3)CC2)C1` (centres unmarked) [Compound 344], the IC50 at NK1 is 20 nM; on NK2 it was 3980 nM.
The matching figures for `O=C(c1cc(C(F)(F)F)cc(C(F)(F)F)c1)N1CC[C@H](N2CCN(C3CCN(S(=O)(=O)c4ccc(COCc5ccccc5)s4)C3)CC2)C[C@H]1Cc1ccccc1` (some centres unmarked) [Compound 345]: 200 nM and 501 nM.
On to `O=C(c1cc(C(F)(F)F)cc(C(F)(F)F)c1)N1CC[C@H](N2CCN(C3CCN(S(=O)(=O)c4occc4CCOCc4ccccc4)C3)CC2)C[C@H]1Cc1ccccc1` (some centres unmarked) [Compound 410], for which the IC50 was 50.1 nM on NK1 and 1260 nM at NK2.
